{"source": "patent US20110039762A1", "about": "“TARGETED ANTIMICROBIAL MOIETIES” (C3 JIAN, INC., priority 2009, published 2011)", "key": {"[1]": {"system": "MRSA", "assay": "Kill or inhibit growth/proliferation; morphology, biofilm and growth disruption (Tables 5, 6); for all read-outs here: test concentration or dose not given here", "format": "cell-based, Methicillin-resistant Staphylococcus aureus", "set-up": "key: A: Peptide aggregates; B: Less hyphal formation; Clumps; Diffuse clumps and small polyps; F: Diffuse growth; H: Thin; I: Growth inhibition; Microcolony formation; Rippled; Small polyps; Thick; W: Halo formation on top, microlonies on bottom"}, "[2]": {"system": "S. pneumoniae", "assay": "Kill or inhibit growth/proliferation; morphology, biofilm and growth disruption (Tables 5, 6)", "format": "cell-based, Streptococcus pneumoniae", "set-up": "key: A: Peptide aggregates; B: Less hyphal formation; Clumps; Diffuse clumps and small polyps; F: Diffuse growth; H: Thin; I: Growth inhibition; Microcolony formation; Rippled; Small polyps; Thick; W: Halo formation on top, microlonies on bottom"}, "[3]": {"system": "microorganisms", "assay": "Peptides having multiple activities (targeting/binding, antimicrobial, growth or phenotype altering)", "text": "In certain embodiments, peptides described herein can have multiple activities. Thus for example, a peptide can have both binding/targeting activity and antimicrobial activity. Such peptides can be used, e.g., in a chimeric construct, for any or all of these properties. Thus, for example, a peptide designated “B” in Table 8 can be used as a targeting peptide. If it is also designated G or M it can also be used for antimicrobial activity."}, "[4]": {"system": "microorganisms (e.g., bacteria, yeasts, fungi)", "assay": "Targeting peptide binding to target microorganisms (Table 3)", "conditions": "preferably 1x PBS; for Target(s): microorganism(s) the targeting peptide binds, peptide binding conducted in aqueous buffers varied by peptide solubility; for Target(s) (microorganisms bound by the targeting peptide): peptide binding in aqueous buffers varied by peptide solubility"}}, "note": "Entries after “also recorded” stand apart in the source; their conditions may differ."}
{"substance": "PF-019 (NDTNK; Peptide with targeting and/or antimicrobial activity)", "values": [{"measurement": "Organism, effect", "setting": "[1]", "value": "MRSA (M)"}]}
{"substance": "PF-517: peptide having multiple activities (chain 1 VKPTMTASLISTVC; chain 2 VKPTMTASLISTVC; Peptide with targeting and/or antimicrobial activity)", "values": [{"measurement": "Organism, effect", "setting": "[2]", "value": "S. pneumoniae (M)"}, {"measurement": "Activities", "setting": "[3]", "value": "G B"}, {"measurement": "Target(s)", "setting": "[4]", "value": "C. jejuni"}]}
{"substance": "PF-542: peptide having multiple activities (chain 1 KKDNPSLNDQDKNAVLNLLALAK; chain 2 KKDNPSLNDQDKNAVLNLLALAK; Peptide with targeting and/or antimicrobial activity)", "values": [{"measurement": "Organism, effect", "setting": "[2]", "value": "S. pneumoniae (H)"}, {"measurement": "Activities", "setting": "[3]", "value": "G B"}, {"measurement": "Target(s)", "setting": "[4]", "value": "C. jeikeium"}]}
{"substance": "PF-573: peptide having multiple activities (chain 1 EKKLIVKLIDSIGKSHEEIVGAG; chain 2 EKKLIVKLIDSIGKSHEEIVGAG; Peptide with targeting and/or antimicrobial activity)", "values": [{"measurement": "Organism, effect", "setting": "[2]", "value": "S. pneumoniae (C)"}, {"measurement": "Activities", "setting": "[3]", "value": "G B"}, {"measurement": "Target(s)", "setting": "[4]", "value": "S. epidermidis; also recorded: S. pneumoniae"}]}
{"substance": "PF-625: peptide having multiple activities (SDSTNNARTRKKARDVTTKDIDK; Peptide with targeting and/or antimicrobial activity)", "values": [{"measurement": "Organism, effect", "setting": "[2]", "value": "S. pneumoniae (H)"}, {"measurement": "Activities", "setting": "[3]", "value": "G B"}, {"measurement": "Target(s) (microorganisms bound by the targeting peptide)", "setting": "[4]", "value": "S. epidermidis; also recorded: M. luteus; also recorded: S. pneumoniae; also recorded: C. jeikeium"}]}
{"substance": "PF-626: peptide having multiple activities (KYDFDDFEPEEA; Peptide with targeting and/or antimicrobial activity)", "values": [{"measurement": "Organism, effect", "setting": "[2]", "value": "S. pneumoniae (H)"}, {"measurement": "Activities", "setting": "[3]", "value": "G B"}, {"measurement": "Target(s) (microorganisms bound by the targeting peptide)", "setting": "[4]", "value": "S. epidermidis and M. luteus and E. coli and C. albicans and MRSA and S. pneumoniae and E. faecalis and C. jeikeium"}]}
{"substance": "PF-656 (chain 1 RGMFVPFHDVDCVQ; chain 2 RGMFVPFHDVDCVQ; Peptide with targeting and/or antimicrobial activity)", "values": [{"measurement": "Target(s) (microorganisms bound by the targeting peptide)", "setting": "[4]", "value": "Mycobacteria spp"}, {"measurement": "Organism, effect (morphology, biofilm and growth disruption)", "setting": "[1]", "value": "MRSA (R)"}]}
{"substance": "PF-737: peptide having multiple activities (KSSGSSASASSTAGGSSSK; Peptide with targeting and/or antimicrobial activity)", "values": [{"measurement": "Organism, effect (morphology, biofilm and growth disruption)", "setting": "[2]", "value": "S. pneumoniae (D)"}, {"measurement": "Activities", "setting": "[3]", "value": "G B"}, {"measurement": "Target(s) (microorganisms bound by the targeting peptide)", "setting": "[4]", "value": "S. epidermidis; also recorded: S. pneumoniae"}]}
{"substance": "PF-744: peptide having multiple activities (LGVGTFVGKVLIKNQQKQKSKKKAQ; Peptide with targeting and/or antimicrobial activity)", "values": [{"measurement": "Organism, effect (morphology, biofilm and growth disruption)", "setting": "[2]", "value": "S. pneumoniae (H)"}, {"measurement": "Activities", "setting": "[3]", "value": "G B"}, {"measurement": "Target(s) (microorganisms bound by the targeting peptide)", "setting": "[4]", "value": "S. epidermidis and M. luteus and E. coli and MRSA and S. pneumoniae and E. faecalis and C. jeikeium"}]}
{"substance": "PF-756: peptide having multiple activities (DALLRLA; Peptide with targeting and/or antimicrobial activity)", "values": [{"measurement": "Organism, effect (morphology, biofilm and growth disruption)", "setting": "[2]", "value": "S. pneumoniae (A)"}, {"measurement": "Activities", "setting": "[3]", "value": "G B"}, {"measurement": "Target(s) (microorganisms bound by the targeting peptide)", "setting": "[4]", "value": "S. epidermidis and M. luteus and C. albicans and MRSA and C. jeikeium"}]}
{"substance": "PF-757: peptide having multiple activities (PQAISSVQQNA; Peptide with targeting and/or antimicrobial activity)", "values": [{"measurement": "Organism, effect (morphology, biofilm and growth disruption)", "setting": "[2]", "value": "S. pneumoniae (H)"}, {"measurement": "Activities", "setting": "[3]", "value": "G B"}, {"measurement": "Target(s) (microorganisms bound by the targeting peptide)", "setting": "[4]", "value": "M. luteus and C. albicans and MRSA"}]}
{"substance": "PF-762: peptide having multiple activities (PAPAPSAPAPAPEQPEQPA; Peptide with targeting and/or antimicrobial activity)", "values": [{"measurement": "Organism, effect (morphology, biofilm and growth disruption)", "setting": "[2]", "value": "S. pneumoniae (H)"}, {"measurement": "Activities", "setting": "[3]", "value": "G B"}, {"measurement": "Target(s) (microorganisms bound by the targeting peptide)", "setting": "[4]", "value": "M. luteus; also recorded: C. albicans"}]}
